Patent publication US11523610B2, “Regulating plant growth using a diapocarotenoid” (King Abdullah University of Science and Technology, priority 2018, dated 2022)
Entries after “also recorded” stand apart in the source; their conditions may differ.

Legend:
pDR5rev::GFP seedlings = assay: Confocal microscopy of pDR5rev::GFP auxin marker line; format: in vivo, Arabidopsis
Excerpt: To examine pDR5Rev::GFP fluorescence at the collet region, live seedlings were directly used for laser scanning confocal microscopy (Zeiss LSM 510 microscope) examination.
For fluorescence intensity quantification of pDR5Rev::GFP and pPIN3::PIN3-GFP marker lines, ImageJ software (rsbweb.nih.gov/ij/) was used after taking confocal microscopy photos. All calculations are background subtracted.

[1] = test system: Arabidopsis collet transcriptome; assay: RNA-Seq of collet transcriptome; format: in vivo; conditions: collets
Experimental: For anchorene and NPA treatment, Col-0 seedlings were vertically grown on half MSO (with 0.5% sucrose+1% agar, 0.5 g/L MES, pH 5.7) plates supplemented with 20 μM anchorene or 1 μM NPA for 5 days. RAM excision treatment was applied by excising the RAM from 4.5-day old Col-0 seedlings, and then tissue was collected 12 hours after excision (5 DAG). About 2 mm of tissue at the collet site (see FIG. 11I) was collected at 5 DAG for all chemicals and physical treatment. Tissue from approximately 50 seedlings were used for each sample. Total RNA was extracted by Direct-zolTM RNA MiniPrep Plus (200 Preps) w/Zymo-Spin™ (ZYMO research). 100 ng total RNA were used for RNA Hi-seq 4000 (ILLUMINA). Each treatment includes three independent replicates.
Prior to the analysis of RNA-Seq data, the adaptor sequences and low-quality ends of sequenced reads were trimmed using Trimmomatic v0.32 and quality-checked using FastQC v0.11 (www.bioinformatics.babraham.ac.uk/projects/fastqc). To quantify the expression level of genes, the remaining reads were pseudo-aligned to the publicly available TAIR10 A. thaliana transcriptome (release 34) using kallisto v0.43.0. The estimated read counts and calculated transcripts per million (TPM) were subsequently passed to sleuth v0.28.1 for differential expression analysis. […] Gene ontology and KEGG pathway enrichment analyses were conducted using clusterProfiler and Pathview. RNA-Seq data can be accessed at NCBI via BioProject ID PRJNA489360.

pDR5::LUC seedlings = assay: Luciferase assay in pDR5::LUC auxin marker line; format: in vivo, Arabidopsis; conditions: 1 μM NF, 20 μM anchorene
Experimental: Luciferase activity was assayed as previously described. Briefly, 1 mL of 5 mM Potassium Luciferin (Gold Biotechnology®) dissolved in water was directly applied to pDR5:LUC seedlings grown vertically on treated half strength MS plates. The luciferin solution was allowed to dry for 5-10 minutes in the dark, at room temperature. Seedlings were then imaged using a Lumazone™ CA automated Chemiluminescence system. Seven minute exposure times were used.
A pDR5::LUC line, which marks LR prebranch sites, was used to track ANR development. […] ANR primordia initiation was observed as early as 3 dps, in anchorene treated pDR5::LUC and 158 pDR5rev::GFP seedling (FIGS. 5A-C).

maize = assay: Maize hydroponic growth with anchorene; format: in vivo
Experimental: FIGS. 20A-C show anchorene promotes root growth in maize according to one or more embodiments of the present disclosure. (A) represents the timeline for the hydroponic system for maize growing and anchorene treatment. […] (C) is a histogram quantifying the root and shoot length (cm) of maize seedlings with or without anchorene treatment
Arabidopsis is a dicot model plant. To test the effect of anchorene on monocot plant and crops, the biological functions of anchorene was evaluated on two important crops, rice and maize, under hydroponic conditions. Excitingly, a clear effect of anchorene on rice primary root and crown root growth (FIGS. 19B-E). A clear effect on shoot growth was not observed during this period, which might indicate anchorene specifically regulates root architecture. Similar effect was also examined in maize (FIGS. 20B-C). […] Root growth promoting not only could better anchor the plant, but also increase the volume of the plant root which will facilitate the water and nutrient absorption for the plant.

[2] = test system: Arabidopsis seedlings (lateral roots); assay: Lateral root emergence and lateral root capacity; format: in vivo
Excerpt: ANRs were counted in seedlings vertically grown on half strength MS (with 0.5% sucrose +1% agar, 0.5 g/L MES, pH 5.7) media 8 days post-stratification (dps) using a dissection microscope. To investigate ANR formation after root apical meristems (RAM) excision (ANR-RE), RAM of seedlings were excised using sterile scalpels at 5 dps and then grown for another 3 days prior to counting the number of emerged ANRs. RAM of seedlings were excised at 8 dps and then grown for another 3 days prior to counting the number of emerged LRs. For determining the effect of anchorene on lateral roots, the number of emerged lateral roots were counted using a dissection microscope at 8 dps. For primary root length measurements, seedlings were measured using the publicly available ImageJ software (downloaded from rsbweb.nih.gov/ij/) after taking digital photographs. For adventitious root assay, the number of emerged adventitious roots per plant were counted after 5 days of treatment on plates with or without anchorene.

Compound: C\C(C=O)=C/C=C/C=C(\C)C=O [anchorene, 12,12′-diapocarotene-12,12′-dial]
- GFP signal in ANR primordia, combined NF/anchorene treatment (pDR5rev::GFP seedlings; 1 μM NF plus 20 μM anchorene): clearly enhanced
- GFP signal at the collet / ANR primordia (pDR5rev::GFP seedlings; single compound, 20 μM anchorene, 1 μM NF): strong GFP signal
- genes with opposite effects of RAM excision and anchorene treatment ([1]; 20 μM anchorene): 36 genes
- genes with similar response to RAM excision and anchorene treatment ([1]; 20 μM anchorene): 1459 genes
- overlapping genes on which NPA and anchorene exert the opposite effect ([1]; 20 μM anchorene, 1 μM NPA): 2791 (83%) genes
- overlapping genes whose expression level is affected by NPA and anchorene ([1]; 20 μM anchorene, 1 μM NPA, 5 days): 3355 genes
- effect on auxin biosynthesis genes ([1]; anchorene application): induction of many auxin biosynthesis genes
- LUC signal in the collet (pDR5::LUC seedlings): intensified the LUC signal
- growth of primary root and lateral roots in maize (maize): greatly promoted
- lateral root emergence ([2]; 5 and 10 μM anchorene, 8 dps): no effect; also recorded: did not affect
- LR capacity in untreated seedlings ([2]; LR No. after RAM excision, 20 μM anchorene): inhibits LR capacity
- LR formation (LR capacity) after D15 treatment ([2]; LR No. after RAM excision, 20 μM anchorene and 100 μl D15): no significant effect
- LR length ([2]; anchorene application (FIGS. 3E-F)): did not affect
